Data as given in patent publication US20130053320A1, “TREATMENT OF ANEMIA BY ADNP AND ADNF POLYPEPTIDES” (Ramot at Tel-Aviv University, Ltd., priority 2010, published 2013).

Key:
MEL cells [1] = assay: MEL cell erythroid differentiation, marker mRNA by Real-Time PCR; type: cell-based, mouse
Procedure: MEL cells were a gift from Prof. N. Shaklai (Tel Aviv University, Israel). Cells were cultured at 37° C. in 5% CO2 incubator in RPMI-1640 medium supplemented with 10% fetal calf serum, 2 mM L-glutamine, 100 U/ml penicillin, 0.1 mg/ml streptomycin and 12.5 U/ml nystatin (Biological Industries, Beit Haemek, Israel). To induce erythroid differentiation, 2% DMSO (v/v, Sigma, St. Louis, Mo., USA) was added for 4 days.
2 ADNP shRNA clones (sh68 and sh71, Sigma) were used for mouse ADNP (NM_009628) silencing in MEL cells, as before (Mandel et al., 2008, J Mol Neurosci 35, 127-141). […] For mouse ADNP2 (NM_175028) silencing, a mixture of 2 stealth small interfering RNA (siRNA) duplexes (Invitrogen, Carlsbad, Calif., USA) was used.
Transfections were performed using Lipofectamine-2000 (Invitrogen). 6 hours after transfection, 2% DMSO was added to the cells for 4 days in order to induce erythroid differentiation. On the 4th day, cells were harvested, RNA was extracted and expression levels of ADNP, ADNP2, band3, β-globin, Brg1 and c-kit were evaluated.
Total RNA from MEL cells was extracted by the RNeasy Plus Mini Kit (Qiagen, Hilden, Germany). RNA integrity was determined by fractionation on 1% agarose gel and staining with ethidium bromide. RNA quantity (OD260) was determined by NanoDrop spectrophotometer (NanoDrop Technologies, Wilmington, Del., USA).
Samples with the same amount of total RNA were used to synthesize single-strand cDNA employing the Applied Biosystems High Capacity cDNA Reverse Transcription Kit (Applied Biosystems, Foster City, Calif., USA) and random hexamers primers as before (Dresner et al., 2010, supra). Primer pairs (see Table 1) were designed using the primer 3 web interface (website: frodo.wi.mit.edu/primer3/) and synthesized by Sigma-Genosys (The Woodlands, Tex., USA). To avoid amplification of contaminating genomic DNA, primers were designed to exon-exon junction. […]

MEL cells [2] = assay: Growth of MEL cells during differentiation (viable cell counts); type: cell-based, mouse; settings: 2% DMSO vs ND cells
Procedure: FIG. 4: ADNP and ADNP2 are required for mouse erythroid differentiation. (A-C) MEL cells were differentiated with 2% DMSO for 4 days and compared to non-differentiated (ND) cells incubated for the same time period. Results are means±S.E.M analyzed by student's t-test (*p<0.05, **p<0.01, ***p<0.001). (A) The picture depicts the red pellet (Hb) of differentiated (D) cells compared to the white pellet of ND cells. (B) mRNA expression levels of β-globin, band3 and c-kit in D versus ND MEL cells. 4 experiments were performed, each in duplicates. Data is presented in logarithmic scale as fold change from the expression level in the ND state. (C) Growth curves of D and ND MEL cells. Results are % of the number of cells at plating (100%). […] Real-Time PCR analysis determined ADNP, ADNP2, β-globin, band3 and c-kit expression levels. […] Results, means±S.E.M were analyzed using student's t-test (*p<0.05, **p<0.01, ***p<0.001, relative to control cells, transfected with non-specific shRNA/siRNA sequences). (F+G) MEL cells were transfected with ADNP/ADNP2 shRNA/siRNA respectively, and viable cells were counted every 24 hrs during 4 days differentiation process with 2% DMSO. […] Results are presented as % from the number of cells at plating (100%), and analyzed using student's t-test (**p<0.01, relative to number of control cells, transfected with non-specific siRNA or shRNA sequences). […]

zebrafish embryos [3] = assay: Morpholino knockdown in zebrafish embryos, observation of blood and morphology; type: in vivo; settings: for cardiac edema / smaller head and eyes: MO-injected embryos; for morphology and development: MO-injected embryos vs control; for smaller head and eyes: FIG. 2C; for blood colour: at 72 hpf, vs red blood of control embryos; for blood cells in circulation: starting from 28 hpf, vs control-MO injected embryos
Procedure: (§1) Gene knockdown experiments were performed using morpholino-modified antisense oligonucleotides (MO's, Gene Tools, Philomath, Oreg., USA). MO's were injected into wild type embryos, immediately after fertilization (2 nl, 1-2 mM). This was followed by a daily monitoring of the embryos for 10 days. MO's sequences were chosen through the Gene Tools oligonucleotide design service. A splicing MO, directed to intron3-exon4 boundary, was designed to block adnp1a (adnp1a-MO, 5′-[…]-3′). The efficiency of the adnp1a splicing MO was evaluated by RT-PCR. Translation MO's were designed to block adnp1b, adnp2a and adnp2b (adnp1 b-MO, 5′-[…]-3′; adnp2a-MO: 5′-[…]-3′; adnp2b-MO: 5′-[…]-3′). BLAST analysis was performed to verify that the MO's were not predicted to bind gene sequences other than their targets, and that their target sequence was not conserved among the other zebrafish adnp1 and adnp2 genes. Gene-Tools standard control-MO, which has not been reported to have other targets or generate any phenotypes, was used as a negative control (5-[…]-3′). Injections were repeated in at least 4 independent experiments for each MO.
For adnp2a-MO injected embryos, blood circulation was evaluated at 48 hpf. For the 3 other MO's, circulation was examined at 72 hpf when red blood is easily seen. Based on observation, embryos were divided to have normal blood cells, no blood cells or hypochromic and/or fewer blood cells.

zebrafish embryos [4] = assay: O-dianisidine staining of Hb in whole MO-injected embryos; type: in vivo; settings: for Hemoglobin (Hb) staining, Hb content: 48 hpf and 72 hpf; for O-dianisidine staining: 48 hpf, vs control embryos (legend FIG. 2F)
Procedure: as §1
Hb activity was detected in whole embryos by performing o-dianisidine staining as described (Iuchi and Yamamoto, 1983, J Exp Zool 226, 409-417).

zebrafish embryos [5] = assay: Whole-mount in situ hybridization (WMISH) of hematopoietic markers in MO-injected embryos; type: in vivo
Procedure: as §1
Transcripts of sci (NM_213237), lmo2 (NM_131111), gata1 (NM_131234), band3 (NM_198338), embryonic α-globin 1 (NM_182940), lys-C(NM_139180), l-plastin (NM_131320), ikaros (NM_130986), c-myb (NM_131266), irx7 (NM_131881), flk1 (NM_131472), cmlc2 (NM_131329), adnp1a (NM_001080015), adnp1b (XM—002666474), adnp2a (NM_001098265) and adnp2b (NM_001080013) were detected by WMISH using digoxygenin (DIG) labeled antisense RNA probes at a concentration of 1 ng/μl. Transcription of RNA probes was performed from pGEM-T Easy plasmids linearized before the coding sequence, using SP6 or T7 RNA polymerases (DIG RNA labeling kit, Roche Applied Science, Penzberg, Germany). Embryos at different developmental stages were fixed overnight in 4% paraformaldehyde and stored in 100% methanol. WMISH was performed as describe (Ziv et al., 2005, supra). Fixed embryos were then placed in 70% glycerol for observation and photography using a dissecting stereoscope (SZX12, Olympus) equipped with digital camera (DP70, Olympus). In each experiment, embryos hybridized with the same probe were stained under the same conditions and for the same time period using identical microscopic and camera settings.

[6] = 2% DMSO for 4 days vs non-differentiated cells

Row | Compound | cardiac edema (zebrafish embryos [3]) | morphology and development (zebrafish embryos [3]) | smaller head and eyes (zebrafish embryos [3]) | blood colour (zebrafish embryos [3]) | blood cells in circulation (zebrafish embryos [3]) | Hemoglobin (Hb) staining, Hb content (zebrafish embryos [4]) | O-dianisidine staining (zebrafish embryos [4]) | further results
1 | C[S+](C)[O-] [DMSO] |  |  |  |  |  |  |  | c-kit expression lower (MEL cells [1]; 2% DMSO for 4 days vs ND cells): 200 times; increase of band3 mRNA expression (MEL cells [1]; [6]): 10000 fold; increase of β-globin mRNA expression (MEL cells [1]; [6]): 1000 fold; growth rate of differentiating cells (MEL cells [2]): significant reduction
2 | adnp1b-MO: translation-blocking morpholino to zebrafish adnp1b, 5′-TTGTTCACTGGGAGTTGAAACATTC-3′ (all phosphorodiamidate morpholino (PMO)) | visible in some embryos | developmental delay, distorted tail morphology | 92 % of embryos | hypochromic | fewer blood cells in circulation | significant reduction in Hb content | Reduced staining | 
3 | adnp2a-MO: translation-blocking morpholino to zebrafish adnp2a, 5′-CACTGGAATCTGATACATTTTGCTC-3′ (all phosphorodiamidate morpholino (PMO)) | noticeable cardiac edema | no effect on the overall morphology |  |  |  | totally negative | No staining is visible | blood cells visible (zebrafish embryos [3]; between 33-48 hpf): no blood cells were evident; ectopic expression of band3 along the tail and yolk sinus (zebrafish embryos [5]; 4 dpf): 100 % of embryos; ectopic expression of gata1 along the tail and yolk sinus (zebrafish embryos [5]; 4 dpf): 86 % of embryos; gata1 expression normal in the ICM (zebrafish embryos [5]; 17-19 hpf): 100 % of embryos; lmo2 expression intact in the ICM (zebrafish embryos [5]; 17-19 hpf): 100 % of embryos; scl expression intact in the ICM (zebrafish embryos [5]; 17-19 hpf): 100 % of embryos; band3 expression almost absent (zebrafish embryos [5]; 28 hpf): 83 % of embryos; embryonic α-globin 1 expression significantly reduced (zebrafish embryos [5]; 28 hpf): 96 % of embryos; gata1 expression dramatically reduced (zebrafish embryos [5]; 28 hpf): 90 % of embryos; l-plastin expression intact (zebrafish embryos [5]; 28 hpf): 100 % of embryos; lys-C expression intact (zebrafish embryos [5]; 28 hpf): 100 % of embryos; band3 expression almost absent (zebrafish embryos [5]; 48 hpf): 97 % of embryos
4 | adnp2b-MO: translation-blocking morpholino to zebrafish adnp2b, 5′-ACCTTTTACTGGAAACTGGTACATG-3′ (all phosphorodiamidate morpholino (PMO)) |  | no developmental delay or major morphological changes |  |  |  |  | Reduced staining | morphology (zebrafish embryos [3]; injection of higher doses of MO): distorted morphology
5 | adnp1a-MO: splicing morpholino antisense oligonucleotide to intron3-exon4 boundary of zebrafish adnp1a, 5′-TAGTCCTGCAACATTTGAGAAACCA-3′ (all phosphorodiamidate morpholino (PMO)) | visible in some embryos | developmental delay, distorted tail morphology | 73 % of embryos | hypochromic | fewer blood cells in circulation | significant reduction in Hb content | Reduced staining | 
